Data published in patent publication US20050004017A1, “Methods and compositions for treating hcap associated diseases” (priority 2001, published 2005).

Tested on: HCAP interaction with ErbB-2
Assay: Co-immunoprecipitation of HCAP with anti-ErbB-2 antibody from radicicol-treated T47D cells
Type: cell-based
Details: T47D cells treated with radicicol (3 μM) for 0, 3 or 6 hours; gel electrophoresis, bands identified by mass spectroscopy
Procedure: Band numbers 30 and 35 were identified by mass spectroscopic analysis as hepatocellular associated protein (HCAP). […] T47D cells, a breast cancer cell line that is mutant for the p53 tumor suppressor gene and ErbB-2 positive, were treated with radicicol (RA) for 0, 3 or 6 hours, and then proteins were immunoprecipitated using an anti-ErbB-2 antibody and resolved by gel electrophoresis. […] Band nos. 30 and 35 were identified by mass spectroscopic analysis to be hepatocarcinoma associated protein (HCAP). The amount of HCAP immunoprecipitated with anti-ErbB-2 antibody decreased in the presence of RA.

**Q.** `C[C@@H]1C[C@H]2O[C@@H]2/C=C\C=C\C(=O)Cc2c(Cl)c(O)cc(O)c2C(=O)O1` [radicicol, Radicicol] was tested. Which “amount of HCAP immunoprecipitated with anti-ErbB-2 antibody” value did it give?
**A.** decreased
